Measurements published in paper PMC3755991, “Crystal Structure and Substrate Specificity of D-Galactose-6-Phosphate Isomerase Complexed with Substrates” (PLoS ONE, 2013).
Values belong to the compound of their own block, whether it stands above or below them.

How the values were obtained:
[1] = biological target: T1, LacAB (D-galactose-6-phosphate isomerase) (Lacticaseibacillus rhamnosus, UniProt A0A7S7FMU0+A0ABF7SXF6); assay: conversion to D-psicose in soaked crystal; format: binding; settings: 40 mM soak for 2 hr; D-psicose seen in the electron density
T1 construct: gene LRHM_0645; full-length LacA (142 residues) and LacB (172 residues) co-expressed in E. coli BL21(DE3), pQE-80L, N-terminal His6

[2] = biological target: T1, LacAB (D-galactose-6-phosphate isomerase); assay: X-ray crystal structure, soaking; format: binding; settings: converted in the crystal, active site
[3] = biological target: D-galactose-6-phosphate isomerase LacAB from Lactobacillus rhamnosus (heterodimer of LacA and LacB) (Lactobacillus rhamnosus); assay: SEC-MALS; purified LacAB on Superdex 200 10/300 GL, 50 mM Tris-HCl pH 7.5, 200 mM NaCl, 1 mL/min

Compound: OC[C@H]1OC(O)[C@H](O)[C@H](O)[C@@H]1O (stereo partly drawn) [D-allose]
conversion to D-psicose in soaked crystal [1]: D-allose and D-ribose revealed that the substrates are converted to D-psicose and D-ribulose, respectively

X-ray crystal structure, soaking ([2]; crystal soaked in 40 mM D-allose for 2 hr): 4LFM for its complex with D-psicose
Compound: OCC1(O)OC[C@@H](O)[C@@H](O)[C@H]1O (stereo partly drawn) [D-psicose]

X-ray crystal structure, soaking ([2]; crystal soaked in 45 mM D-ribose for 2 hr): 4LFN for its complex with D-ribulose
Compound: O=C(CO)[C@H](O)[C@H](O)CO [D-ribulose]

stoichiometry N [3]: 4
Compound: D-galactose-6-phosphate isomerase LacAB from Lactobacillus rhamnosus (heterodimer of LacA and LacB) (from UniProt A0ABF7SXF6 1-172) (complex)
